Experimental data reported in EP4501112A1, “PLANT DEFENSE ELICITORS” (Globachem NV, priority 2023, dated 2025).
Like-named read-outs stand apart in the source and are kept apart here.

Key:
[1] = system: Plutella xylostella; assay: P. xylostella survival and leaf damage on untreated leaves after treating one leaf of Chinese cabbage; type: in vivo; set-up: key to P. xylostella leaf damage: 0=no damage or no sucking observed; 1=some damage or some sucking observed; 3=half leaf eaten or half of aphids sucking the leaf; 5=no leaf left or all insects sucking and reproducing; conditions: for P. xylostella leaf damage: damage scale 0 - 5
Experimental: DISEASE/PEST: Plutella xylostella / Myzus persicae CROP: Chinese cabbage (Brassica rapa subsp. Pekinensis) APPLICATION: FOLIAR on one leaf of the plant EXPERIMENT/TRIAL PROTOCOL: […] Leaves were left to dry for 1 hour. P. xylostella or M. persicae were added to clip cages on non-treated leaves 1 hour or 24 hours after the applied treatment wherein those cages restrict the movement of the insects to the other leaves. Table 2. Effect on survival and leaf damage of P. xylostella and […] on untreated leaves of […].

[2] = system: Meligethes Aeneus; assay: Field trial, foliar spray against M. aeneus on oil seed rape; type: in vivo
From the text: DISEASE/[…] Aeneus CROP: Oil seed rape (Brassica napus spp. Campino) APPLICATION: Foliar spray EXPERIMENT/TRIAL PROTOCOL: Foliar spray was applied in the field with a motorized sprayer in spring when the insects appeared on the crop (BBCH 38-41). The trial design consisted of a randomized complete block with 4 replications per treatment. The treated area per plot was 30m^2. Used water volume was 300 L/ha. Evaluation was done by counting adult insects per 25 plants. […] Table 5: Efficacy assessment: % efficacy versus untreated (%UNCK) of M. aeneus on B. napus (field)

[3] = system: Maize (cultivar Mofox); assay: Abiotic stress (flooding, drought, daily watered) growth trial on maize, foliar treatment
[4] = system: S. avenae; assay: Aphid survival and sucking on untreated leaves after treating one leaf of Chinese cabbage; type: in vivo; set-up: key to S. avenae sucking: 0=no damage or no sucking observed; 1=some damage or some sucking observed; 3=half leaf eaten or half of aphids sucking the leaf; 5=no leaf left or all insects sucking and reproducing; conditions: for S. avenae sucking: scale 0 - 5
[5] = system: Leptosphaeria maculans; assay: Seed treatment lab trial against Leptosphaeria maculans in oilseed rape seedlings; type: in vivo; conditions: Plenodomus lingam, in Brassica napus, 144 h, 6 days after inoculation, read-out: % Efficacy
From the text: [table] Table 8: Efficacy assessment of fatty acids in seed treatment of Leptosphaeria maculans in oilseed rape (variety Helga)

[6] = system: Phytophthora infestans (PHYTIN); assay: whole plant or invertebrate; type: in vivo; conditions: in Solanum tuberosum, foliar
[7] = system: Root knot nematode (Meloidogyne graminicola); assay: Root knot nematode gall development on wheat roots after treatment; type: in vivo; conditions: foliar spraying, stock solution 200 x diluted; 400 J2 per plant 24 hours after treatment; 14 days after inoculation
Experimental: DISEASE/PEST: Root knot nematode (Meloidogyne graminicola) CROP: Triticum aestivum APPLICATION: Foliar application EXPERIMENT/TRIAL PROTOCOL: After seed germination, wheat plants were grown individually for 2 weeks in a PVC tube (18 cm height, 3 cm diameter) filled with a substrate of sand and a water-absorbing polymer (DCM Aquaperla). Plants were grown at 24 °C and supplied with Hoagland solution and water 3 times per week. They were treated after 2 weeks. Twenty-four hours after treatment they were inoculated with 400 nematode juveniles (second stage; J2) per plant. 8 individual plants were analyzed per treatment. Evaluation of nematode infection was done 14 days after inoculation. Development of galls on the roots was microscopically observed and counted. No females were observed yet at this early time point, in any of the treatments. The number of galls was reduced in the […], pelargonic acid ([…] decanoic acid (pm4) treated plants. Azelaic acid (pm3) had no effect on gall numbers in the used concentration. FORMULATION USED: […] PM1 is already formulated.

[8] = system: Puccinia triticina; assay: Greenhouse trial, foliar treatment against PUCCTR in wheat
[9] = 0.78 mg on one leaf, insects added 1h after treatment, 6 DAT
[10] = 0.78 mg on one leaf, insects added 1h after treatment, 24h AT
[11] = 0.78 mg on one leaf, insects added 24 h after treatment, 6 DAT
[12] = 0.78 mg on one leaf, insects added 24 h after treatment, 24h AT
[13] = daily watered (normal) conditions, foliar 65 g/ha
[14] = daily watered (normal) conditions, foliar 325 g/ha
[15] = daily watered (normal) conditions, foliar 650 g/ha
[16] = daily watered (normal) conditions, foliar 1300 g/ha
[17] = drought conditions, foliar 65 g/ha
[18] = drought conditions, foliar 325 g/ha
[19] = drought conditions, foliar 650 g/ha
[20] = drought conditions, foliar 1300 g/ha
[21] = flooding conditions, foliar 65 g/ha
[22] = flooding conditions, foliar 325 g/ha
[23] = flooding conditions, foliar 650 g/ha
[24] = flooding conditions, foliar 1300 g/ha

## CCCCCCCCC(=O)O [Pelargonic acid, pelargonic acid]
[1]; [9]
  P. xylostella leaf damage: 1
[1]; [10]
  P. xylostella leaf damage: 1
[1]; [11]
  P. xylostella leaf damage: 5
[1]; [12]
  P. xylostella leaf damage: 4
[1]; 0.78 mg on one leaf, insects on non-treated leaves, added 1h after treatment, 6 DAT
  P. xylostella survival: growth limited to L3 stage
[1]; 0.78mg, insects introduced 1h after treatment to an untreated leaf of the same plant
  larval maturation and leaf damage in P. xylostella: reduction
[2]; 650 g/ha, 4DAA
  % efficacy versus untreated (%UNCK) of M. aeneus on B. napus (field): 91 b %
[2]; 650 g/ha, 8DAA
  % efficacy versus untreated (%UNCK) of M. aeneus on B. napus (field): 89 b %
[2]; 650 g/ha, 300 L/ha water, 1DAA
  % efficacy versus untreated (%UNCK) of M. aeneus on B. napus (field): 34.60 c %
[2]; 975 g/ha, 1DAA
  % efficacy versus untreated (%UNCK) of M. aeneus on B. napus (field): 79.25 ab %
[2]; 975 g/ha, 4DAA
  % efficacy versus untreated (%UNCK) of M. aeneus on B. napus (field): 100 a %
[2]; 975 g/ha, 8DAA
  % efficacy versus untreated (%UNCK) of M. aeneus on B. napus (field): 100 a %
[3]; [13]
  % total growth to control: 71%
  ASSESSMENT total growth after 15 days (cm): 18.4 cm
[3]; [14]
  % total growth to control: 87%
  ASSESSMENT total growth after 15 days (cm): 22.5 cm
[3]; [15]
  % total growth to control: 95%
  ASSESSMENT total growth after 15 days (cm): 24.8 cm
[3]; [16]
  % total growth to control: 78%
  ASSESSMENT total growth after 15 days (cm): 20.3 cm
[3]; [17]
  % total growth to control: 87%
  ASSESSMENT total growth after 15 days (cm): 17.4 cm
[3]; [18]
  % total growth to control: 87%
  ASSESSMENT total growth after 15 days (cm): 17.6 cm
[3]; [19]
  % total growth to control: 112%
  ASSESSMENT total growth after 15 days (cm): 22.2 cm
[3]; [20]
  % total growth to control: 91%
  ASSESSMENT total growth after 15 days (cm): 18.2 cm
[3]; [21]
  % total growth to control: 104%
  ASSESSMENT total growth after 15 days (cm): 26.3 cm
[3]; [22]
  % total growth to control: 104%
  ASSESSMENT total growth after 15 days (cm): 26.1 cm
[3]; [23]
  % total growth to control: 90%
  ASSESSMENT total growth after 15 days (cm): 22.6 cm
[3]; [24]
  % total growth to control: 82%
  ASSESSMENT total growth after 15 days (cm): 20.7 cm
[4]; [9]
  S. avenae sucking: 4
[4]; [10]
  S. avenae sucking: 0
[4]; [11]
  S. avenae sucking: 1
[4]; [12]
  S. avenae sucking: 4
[4]; 0.78 mg on one leaf, insects on non-treated leaves, added 24 h after treatment, 6 DAT
  S. avenae survival: Very small colony
[4]; 0.78mg, insects introduced 24h after treatment to an untreated leaf of the same plant
  number of S. avenae individuals and sucking: reduction
[5]; seed treatment 0.76 g/ton, % healthy plants vs infected seedlings
  Emax: 100%
[5]; seed treatment 3.04 g/ton
  Emax: 80%
[5]; seed treatment 6.08 g/ton
  Emax: 80%
[5]; seed treatment 7.60 g/ton
  Emax: 100%
[6]; read-out: ASSESSMENT 7 DAI (% efficacy), foliar 0.76 g/ha
  % efficacy: 0.2%
[6]; read-out: ASSESSMENT 7 DAI (% efficacy), foliar 1.14 g/ha
  % efficacy: 14%
[6]; read-out: ASSESSMENT 7 DAI (% efficacy), foliar 1.52 g/ha
  % efficacy: 20.1%
[6]; read-out: ASSESSMENT 7 DAI (% efficacy), foliar 2.66 g/ha
  % efficacy: 23%
[6]; read-out: ASSESSMENT 7 DAI (% efficacy), foliar 3.80 g/ha
  % efficacy: 18.6%
[6]; read-out: ASSESSMENT 7 DAI (% efficacy), foliar 5.32 g/ha
  % efficacy: 17.7%
[6]; read-out: ASSESSMENT 7 DAI (% efficacy), foliar 7.60 g/ha, inoculated 7 days after treatment
  % efficacy: 3%
[6]; read-out: ASSESSMENT 14 DAI (% efficacy), foliar 0.76 g/ha
  % efficacy: 0%
[6]; read-out: ASSESSMENT 14 DAI (% efficacy), foliar 1.14 g/ha
  % efficacy: 7.9%
[6]; read-out: ASSESSMENT 14 DAI (% efficacy), foliar 1.52 g/ha
  % efficacy: 22%
[6]; read-out: ASSESSMENT 14 DAI (% efficacy), foliar 2.66 g/ha
  % efficacy: 21.9%
[6]; read-out: ASSESSMENT 14 DAI (% efficacy), foliar 3.80 g/ha
  % efficacy: 7%
[6]; read-out: ASSESSMENT 14 DAI (% efficacy), foliar 5.32 g/ha
  % efficacy: 16.7%
[6]; read-out: ASSESSMENT 14 DAI (% efficacy), foliar 7.60 g/ha
  % efficacy: 5.4%
[7]
  number of galls: reduced
[8]; foliar 1.52 g ai/ha, 13 dai
  EFFICACY % ALL LEAV ES: 18.6%
  EFFICACY % LEAF 1: 50.0%
  EFFICACY % LEAF 2: 5.9%
  EFFICACY % LEAF 3: 5.9%
  EFFICACY % LEAF 4: 12.5%
[8]; foliar 7.6 g ai/ha, 21 dai
  EFFICACY % ALL LEAV ES: 23.6%
  EFFICACY % LEAF 1: 28.6%
  EFFICACY % LEAF 2: 17.9%
  EFFICACY % LEAF 3: 29.8%
  EFFICACY % LEAF 4: 18.3%
[8]; foliar 95 g ai/ha, 13 dai
  EFFICACY % ALL LEAV ES: 11.3%
  EFFICACY % LEAF 1: 33.3%
  EFFICACY % LEAF 2: 0.0%
  EFFICACY % LEAF 3: 11.8%
  EFFICACY % LEAF 4: 0,0%
[8]; foliar 760 g ai/ha, 13 dai
  EFFICACY % ALL LEAV ES: 30.5%
  EFFICACY % LEAF 1: 66.7%
  EFFICACY % LEAF 2: 11.8%
  EFFICACY % LEAF 3: 0.0%
  EFFICACY % LEAF 4: 43.8%
